Square brackets hold non-standard residues; d marks the D form. Peptide text beside a SMILES is read from it. * marks the point of attachment. Benzoyl(4-SO2F) = O=C(c1ccc(S(=O)(=O)F)cc1)*; Dap = NC[C@H](N)C(=O)O
Assays:
A549 cells = assay: Cellular uptake and endo/lysosomal escape (confocal microscopy); type: cell-based, human
Experimental: A549 cells (20 × 10^4 per well) were seeded into confocal dishes (SPL Life Sciences) and incubated for adhesion overnight at 37 °C in 5% CO2. 6-FAM-labeled C-DSB or control peptide was diluted to Opti-MEM medium (Gibco) and added to the cells for 24-h incubation. C-DBS was washed with PBS containing 20 U/mL heparin (Sigma-Aldrich) and stained with 40 μM Hoechst 33342 (Life Technologies) and 5 μg/mL Wheat Germ Agglutinin Alexa Fluor 647 Conjugate (Life Technologies) for 20 min. After removing excess dye, cell images were captured by the Leica TCS SP8 Confocal Microscope System. To detect the endo/lysosomal escape of C-DBS, 50 nM Lysotracker Red (Life Technologies) was used to stain the endo/lysosomes. Fluorescence intensity profiles of the region of interest (ROI) were analyzed using ImageJ software.

A549 = assay: Cell viability assay (MTT); type: cell-based, human; settings: A549, up to 100 μM, 24 h
Experimental: (§1) Cells (6 × 10^3 per well) were seeded into a 96-well plate. After overnight incubation, cells were treated with different concentrations of C-DBS for 24 h. The viability of the cells was determined using 3-(4,5-dimethylthiazol-2-yl)-2,5-diphenyltetrazolium bromide (MTT) (Roche). Absorption at 570 nm was measured using a microplate reader (BMG, CLARIOstar) according to the manufacturer’s instructions.

HEK-293 = assay: Cell viability assay (MTT); type: cell-based, human; settings: HEK-293, up to 100 μM, 24 h
Experimental: as §1

HeLa = assay: Cell viability assay (MTT); type: cell-based, human; settings: up to 100 μM, 24 h
Experimental: as §1

MDA-MB-231 = assay: Cell viability assay (MTT); type: cell-based, human; settings: MDA-MB-231, up to 100 μM, 24 h
Experimental: as §1

SRPK1ΔNS3 = settings: quoted for comparison, earlier work on DBS1; read-out: Kd of DBS1 for SRPK1; cited from earlier work
Excerpt: Because DBS1 targets the docking groove of SRPK, we tested the specificity of C-DBS toward the same binding site. We performed fluorescence polarization (FP) assay to examine the direct noncovalent interaction between C-DBS and SRPK1ΔNS3, as well as the docking groove mutant SRPK1ΔNS3_DM that contains alanine substitutions at four docking groove residues—D548, D564, E571, and K615—that are essential for the binding and phosphorylation of the substrate (Fig. 2a)[11],[12],[36].

| Molecule | cellular uptake (A549 cells; A549, 10 μM FAM-labeled peptide, 24 h, Opti-MEM, confocal fluorescence microscopy) | endo/lysosomal trapping after internalization (A549 cells; A549, LysoTracker Red, 1.5 or 24 h incubation) | cytotoxicity (MTT) (A549) | cytotoxicity (MTT) (HEK-293) | cytotoxicity (MTT) (HeLa) | cytotoxicity (MTT) (MDA-MB-231) | Kd (SRPK1ΔNS3) [µM] |
| --- | --- | --- | --- | --- | --- | --- | --- |
| CC(=O)N[C@@H](CCCNC(=N)N)C(=O)N[C@@H](CCC(=O)O)C(=O)N[C@@H](CCCNC(=N)N)C(=O)N[C@@H](C)C(=O)N[C@@H](CCCNC(=N)N)C(=O)N[C@H](C(=O)N[C@@H](CCCNC(=N)N)C(=O)N[C@@H](CCCNC(=N)N)C(=O)N[C@@H](CNC(=O)c1ccc(S(=O)(=O)F)cc1)C(=O)N[C@@H](CCCNC(=N)N)C(=O)N[C@@H](C)C(=O)N[C@@H](CCCNC(=N)N)C(=O)N[C@H](C(=O)N[C@@H](CCCNC(=N)N)C(=O)N[C@@H](CCC(=O)O)C(=O)N[C@@H](CCCNC(=N)N)C(=O)N[C@@H](C)C(=O)N[C@@H](CCCNC(=N)N)C(=O)N[C@H](C(=O)N[C@@H](CCCNC(=N)N)C(N)=O)[C@@H](C)O)[C@@H](C)O)[C@@H](C)O [C-DBS] (Ac-RERARTRR[Dap](Benzoyl(4-SO2F))RARTRERARTR-NH2) | readily internalized by the A549 cells | not trapped in endolysosomal compartments after internalization | no cytotoxicity | no cytotoxicity | no cytotoxicity | no cytotoxicity |  |
| RERARTRRE^9RARTRERARTR [DBS1] |  |  |  |  |  |  | 3.2 ± 1.5 |

From PMC11211491, “Design of a covalent protein-protein interaction inhibitor of SRPKs to suppress angiogenesis and invasion of cancer cells” (Communications Chemistry, 2024)
